The values below come from patent US4524066A, “Process for the preparation of injectable chondroitin polysulfate” (Luitpold-Werk Chemisch-pharmazeutische Fabrik, priority 1981, dated 1985).

Bounds are passed on as bounds.

Data set [1] concerns NMRI mice. Nature of the data set: Acute toxicity, NMRI mice, i.v. It counts as in vivo.
The test system of data set [2] is Wistar rats. Briefly: Acute toxicity, Wistar rats, i.v. It counts as in vivo.
The subject of data set [3] is Cats. Briefly: Acute toxicity, cats, i.v. It counts as in vivo.
Data set [4] relates to Dogs. Nature of the data set: Acute toxicity, dogs, i.v. It counts as in vivo.
Data set [5] deals with humans.

On to chondroitin polysulfate, for which the LD50/7d was > 3,500 mg/kg in data set [1], > 3,000 mg/kg in data set [2], > 1,000 mg/kg in data set [3] and > 1,000 mg/kg in data set [4]. The “therapeutic benefit of daily doses” value in data set [5] (daily doses of up to 500 mg) is given as “therapeutically advantageous”. Also, the “therapeutic action in humans” value in data set [5] (single dosages 20-250 mg, in particular 30-150 mg, per individual in 0.2-2.0 ml) was “have a therapeutic action in humans”.
